Like-named read-outs stand apart in the source and are kept apart here.
Experiments:
Format in all cases: cell-based
NR2F6 = molecular target: T1, NR2F6 (Homo sapiens, UniProt P10588); assay: NR2F6 agonist screening, Firefly signal cmpd/DMSO; settings: for Firefly F4, cmpd/DMSO (mean): Table 14; for Firefly, cmpd/DMSO repeat 1 / Firefly, cmpd/DMSO repeat 2: first set screening, 10 μM; for activity (in words): screening result
T1 construct: expressed in transfected cells; also transient transfection
T1 sequence (P10588 1-404): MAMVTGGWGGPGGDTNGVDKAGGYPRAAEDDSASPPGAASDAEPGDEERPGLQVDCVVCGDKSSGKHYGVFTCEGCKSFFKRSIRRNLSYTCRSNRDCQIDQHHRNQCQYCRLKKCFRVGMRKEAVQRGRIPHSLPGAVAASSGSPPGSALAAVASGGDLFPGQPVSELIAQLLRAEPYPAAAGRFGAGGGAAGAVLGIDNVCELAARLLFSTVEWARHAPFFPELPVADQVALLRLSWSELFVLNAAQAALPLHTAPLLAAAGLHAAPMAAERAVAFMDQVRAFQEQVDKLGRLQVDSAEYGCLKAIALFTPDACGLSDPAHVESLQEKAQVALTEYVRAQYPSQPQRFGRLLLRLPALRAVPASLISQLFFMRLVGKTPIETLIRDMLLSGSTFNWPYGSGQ

ERα = molecular target: T2, ERα (Homo sapiens, UniProt P03372); assay: Counterscreening, Firefly signal with ERα transient transfection (Firefly_ERa); settings: ERα transient transfection, 10 μM
T2 construct: expressed in transfected cells
T2 sequence (P03372 1-595): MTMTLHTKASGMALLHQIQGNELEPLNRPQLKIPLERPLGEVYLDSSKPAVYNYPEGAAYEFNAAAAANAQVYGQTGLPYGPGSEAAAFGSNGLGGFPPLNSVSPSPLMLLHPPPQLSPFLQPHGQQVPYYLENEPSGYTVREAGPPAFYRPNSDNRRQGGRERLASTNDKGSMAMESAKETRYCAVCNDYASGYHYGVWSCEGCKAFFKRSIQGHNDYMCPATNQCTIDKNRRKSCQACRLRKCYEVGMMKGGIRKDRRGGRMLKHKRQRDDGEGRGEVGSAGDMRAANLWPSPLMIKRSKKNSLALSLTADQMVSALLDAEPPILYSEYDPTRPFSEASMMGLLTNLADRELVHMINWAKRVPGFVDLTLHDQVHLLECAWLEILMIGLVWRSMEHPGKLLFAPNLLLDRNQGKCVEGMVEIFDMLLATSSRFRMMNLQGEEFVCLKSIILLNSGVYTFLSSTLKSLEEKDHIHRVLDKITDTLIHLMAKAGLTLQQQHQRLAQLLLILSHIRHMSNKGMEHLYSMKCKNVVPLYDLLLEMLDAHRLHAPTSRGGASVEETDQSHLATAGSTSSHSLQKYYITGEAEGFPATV
Method: The methodology for screening candidate compounds as NR2F6 agonists was as follows: For primary screening, hit criteria was ACT %>DMSO control+5*SD (DSO control) at 10 μM, or any compound with S/B>2. For rescreening, hit criteria was ACT %>DMSO control+3*SD (DSO control) in each replicate at 10 μM. For counterscreening, hit criteria was mean ACT<DMSO control+3*SD (DMSO control) with ERα transient transfection in duplicate at 10 μM.

Renilla = Renilla signal in NR2F6 agonist screening, cmpd/DMSO; settings: Renilla
Renilla_ERa = assay: Renilla signal in ERα counterscreen (Renilla_ERa); settings: ERα transient transfection, 10 μM
HEK293 pGL4 = assay: Firefly_pGL signal, cmpd/DMSO (pGL4 control cells); settings: Homo sapiens, HEK293, Table 14, read-out: Firefly pGL4, cmpd/DMSO (mean)
[1] = Table 14, read-out: Renilla F4, cmpd/DMSO (mean)
[2] = Table 14, 10 uM, read-out: Renilla F4, cmpd/DMSO (mean)
[3] = first set screening, 10 μM, repeat 1, read-out: Renilla, cmpd/DMSO repeat 1
[4] = first set screening, 10 μM, repeat 2, read-out: Renilla, cmpd/DMSO repeat 2
[5] = repeat 1, read-out: Renilla_ERa, cmpd/DMSO repeat 1
[6] = repeat 2, read-out: Renilla_ERa, cmpd/DMSO repeat 2

Structure (SMILES)	Firefly F4, cmpd/DMSO (mean) (NR2F6; 2 uM)	Firefly F4, cmpd/DMSO (mean) (NR2F6; 10 uM)	Firefly F4, cmpd/DMSO (mean) (NR2F6; 40 uM)	Firefly, cmpd/DMSO repeat 1 (NR2F6)	Firefly, cmpd/DMSO repeat 2 (NR2F6)	activity (in words) (NR2F6)	Firefly_ERa, cmpd/DMSO repeat 1 (ERα)	Firefly_ERa, cmpd/DMSO repeat 2 (ERα)	fold induction at 2 µM (Renilla; [1])	fold induction at 10 µM (Renilla; [2])	fold induction at 40 µM (Renilla; [1])	fold induction at 10 µM (Renilla; [3])	fold induction at 10 µM (Renilla; [4])	fold induction at 10 µM (Renilla_ERa; [5])	fold induction at 10 µM (Renilla_ERa; [6])	fold induction at 2 µM (HEK293 pGL4)	fold induction at 10 µM (HEK293 pGL4)	fold induction at 40 µM (HEK293 pGL4)
CCc1cccc(Nc2cnn(-c3nc4ccccc4s3)c(=O)c2Cl)c1 [Compound C7]	0.6	0.5	0.4	2.1	2.1	particularly good activity	0.8	0.5	1	0.3	0.4	1.1	1.4	0.8	0.8	0.9	0.8	0.8
CCc1cc(C(=O)Nc2ccn(Cc3ccc(C)cc3)n2)no1 [Compound C6]	1.4	0.6	0.4	2.6	1.9	–	2.2	1.4	0.7	0.6	0.5	1.2	0.9	1	1	1.3	1.3	1
Cc1cc(NC(=O)CCS(=O)(=O)c2nc(-c3ccc4c(c3)OCO4)cc(C(F)(F)F)n2)no1 [Compound C1]	0.5	0.5	0.4	3.4	4.1	particularly good activity	1.0	1.0	2.1	0.2	0.2	4.1	1.5	1.3	1.2	0.7	0.7	0.6
COc1ccc(-c2cc(C(F)(F)F)nc(S(=O)(=O)CCCC(=O)Nc3sc4c(c3C(N)=O)CCCC4)n2)cc1OC [Compound C2]	–	–	–	2.7	2.2	–	1.0	0.8	–	–	–	6	5.3	1.7	1.6	–	–	–
COc1cc(Nc2c3c(nc4ccc(Cl)cc24)CCC3)cc(OC)c1OC [Compound C10]	–	–	–	2.1	2.6	–	1.0	1.3	–	–	–	3.1	1.6	0.7	0.8	–	–	–
CNC(=O)c1ccc2c(c1)N=C(C)c1cc(C)ccc1S2 [Compound C9]	–	–	–	2.7	1.9	–	2.5	2.4	–	–	–	2.4	2.5	0.9	1	–	–	–
